From US20070032417A1, “Peptides and therapeutic uses thereof” (priority 2002, published 2007) come the findings set out here.

Series [1] addresses T1, 6-His tagged Bcl w delta C10 protein (Homo sapiens, UniProt Q92843).
T1 sequence (Q92843 1-183 limits assumed): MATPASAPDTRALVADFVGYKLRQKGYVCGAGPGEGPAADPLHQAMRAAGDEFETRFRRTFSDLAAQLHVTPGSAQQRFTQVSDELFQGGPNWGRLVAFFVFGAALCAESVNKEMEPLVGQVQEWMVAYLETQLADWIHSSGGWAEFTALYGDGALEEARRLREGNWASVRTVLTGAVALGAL
The experiment in a line: Alphascreen competition with Bim26mer, Hexa-His detection system. The series is classed as binding. Conditions: competition with biotinylated Bim-BH3 peptide; read-out: IC50 (nM) Bcl-w ΔC10. From the text:
Alphascreen (Amplified Luminsecent Proximity Homogenous Assay) is a bead based technology which measures a biological interaction between molecules. The assay consists of two hydrogel coated beads which, when bought into close proximity by a binding interaction, allow a transfer of singlet oxygen from a donor bead to an acceptor bead.
Upon binding a photosensitiser in the donor bead converts ambient oxygen to a more excited singlet state. This singlet oxygen then diffuses across to react with a chemiluminescer in the acceptor bead. Fluorophores within the same bead are activated, resulting in the emission of light.
Screening of the conformationally constrained peptides was performed using the Hexa-His detection system. Non biotinylated peptides dissolved in DMSO were titrated into the assay which consisted of 6-His tagged Bcl w delta C10 protein (24 nM Final concentration) and Biotinylated Bim BH3-26 peptide, Biotin-[…] [SEQ ID NO: 40] (1.5 nM Final concentration). To this reaction mix 6His tagged (Nickel Chelate) acceptor beads and Streptavidin coated donor beads, both at 10 ug/ml Final concentration, were added.
Assay buffer contained 50 mM Hepes pH 7.4, 10 mM DTT, 100 mM NaCl, 0.05% Tween and 1 mg/ml BSA. Bead dilution buffer contained 50 mM Tris, pH 7.5, 0.01% Tween and 1 mg/ml BSA. The final DMSO concentration in the assay was 1%. Assays were performed in 384 well white Optiplates and analysed on the Perkin Elmer Fusion plate reader (Ex680, Em520-620 […]).
In general terms: In Alpha technology, singlet oxygen from a donor bead excites a nearby acceptor bead.

Series [2] in a line: Circular dichroism, alpha-helical content of peptides. In kind it is physicochemical. Particulars: 30% aqueous trifluoroethanol. How it is done: Circular dichroism spectra were obtained using a Jasco Model J-710 spetropolarimeter at 20° C. using the following parameters: path length, 2 mm; step resolution, 0.1 nm; speed, 20 nm/min; accumulation, 4; response, 1 second; bandwidth, 1.0 nm. The peptides were analysed at a concentration of 0.5 mg/mL in 30% aqueous TFE. The alpha-helical content of the peptides were determined by methods described in Yang et al (1986), involving comparisons of spectra with model helical peptides.

In series [3] the target is Bcl-2 ΔC22 (Homo sapiens, UniProt P10415). The series can be described thus: Competition assay using biotinylated Bim-BH3 peptide, Bcl-2 ΔC22. The series is classed as binding. Particulars: for IC50: competition with biotinylated Bim-BH3 peptide; for affinity for Bcl-2 and Bcl-xL over the unconstrained 12-mer, in words: compared to the unconstrained 12-mer. The text has this: The results are shown below:

For series [4], the target named is T2, GST tagged Bcl w delta C29 protein (Homo sapiens, UniProt Q92843).
T2 sequence (Q92843 1-164 limits assumed): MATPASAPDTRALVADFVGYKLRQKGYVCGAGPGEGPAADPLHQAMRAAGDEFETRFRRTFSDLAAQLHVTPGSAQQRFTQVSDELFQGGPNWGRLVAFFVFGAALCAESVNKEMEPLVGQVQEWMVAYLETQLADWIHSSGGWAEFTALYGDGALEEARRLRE
The experiment in a line: Alphascreen competition with Bim26mer, GST detection system. Conditions: competition with biotinylated Bim-BH3 peptide; 12-mers, Example 7; read-out: IC50 (nM) Bcl-w ΔC29. In kind it is binding.

Series [5] deals with GST tagged Bcl w delta C29 protein (UniProt Q92843). The experiment in a line: AlphaScreen competition, GST detection; competitor biotinylated Bim BH3-26 peptide.

*1 amine or outer side, *2 acyl side, *3 side chain or, on linkers, in order; H or OH if unused. Where a SMILES comes first, the peptide text is derived from it. Bridges are numbered along the chain shown (N, C = ends). Hexamethylenediamine = C(CCCN[*:2])CCN[*:1]; NH(CH2)5NH = C(CCN[*:1])CCN[*:2]; X1 = O=C(CN[*:1])NCCN[*:2]

The IC50 is the concentration at which inhibition is half-maximal. As to `CC[C@H](C)[C@H](NC(=O)[C@@H]1CCC(=O)NCCCCCNC(=O)CC[C@H](NC(C)=O)C(=O)N[C@@H]([C@@H](C)CC)C(=O)N[C@@H](C)C(=O)N[C@@H](CCC(N)=O)C(=O)N[C@@H](CCC(=O)O)C(=O)N[C@@H](CC(C)C)C(=O)N[C@@H](CCCNC(=N)N)C(=O)N1)C(=O)NCC(=O)N[C@@H](CC(=O)O)C(=O)N[C@@H](CCC(=O)O)C(=O)N[C@@H](Cc1ccccc1)C(N)=O` [A, Ac-E-IAQELR-E-IGDEF-NH2] (Ac-EIAQELREIGDEF-NH2; linker 1-8 via NH(CH2)5NH), the IC50 in series [1] stood at 2600 nM; in series [3], 26000 nM; in series [4] it was 1800 nM. In addition, the “% Helicity” value in series [2] was found to be 33%.
For the molecule `CC[C@H](C)[C@H](NC(C)=O)C(=O)N[C@@H](C)C(=O)N[C@@H](CCC(N)=O)C(=O)N[C@H]1CCC(=O)NCCCCCCNC(=O)CC[C@@H](C(=O)N[C@@H](Cc2ccccc2)C(N)=O)NC(=O)[C@H](CC(=O)O)NC(=O)CNC(=O)[C@H]([C@@H](C)CC)NC(=O)[C@H](CCCNC(=N)N)NC(=O)[C@H](CCCNC(=N)N)NC(=O)[C@H](CC(C)C)NC1=O` [C, Ac-IAQ-E-LRRIGD-E-F-NH2] (Ac-IAQELRRIGDEF-NH2; linker 4-11 via Hexamethylenediamine), the IC50 in series [1] was 230 nM; in series [3], 2600 nM; in series [4] it was 120 nM. Besides, the “% Helicity” value in series [2] worked out at 39%. In addition, the “affinity for Bcl-2 and Bcl-xL over the unconstrained 12-mer, in words” value in series [3] was “outstanding increases in affinity”.
For the molecule `CC[C@H](C)[C@H](NC(C)=O)C(=O)N[C@@H](C)C(=O)N[C@@H](CCC(N)=O)C(=O)N[C@H]1CCC(=O)NCC(=O)NCCNC(=O)CC[C@@H](C(=O)N[C@@H](Cc2ccccc2)C(N)=O)NC(=O)[C@H](CC(=O)O)NC(=O)CNC(=O)[C@H]([C@@H](C)CC)NC(=O)[C@H](CCCNC(=N)N)NC(=O)[C@H](CCCNC(=N)N)NC(=O)[C@H](CC(C)C)NC1=O` [D] (Ac-IAQELRRIGDEF-NH2; linker 4-11 via X1), the IC50 stood at 40 nM in series [1], 6900 nM in series [3] and 160 nM in series [4]. Moreover, the “% Helicity” value in series [2] is reported as 16%.
For the molecule `CC[C@H](C)[C@H](NC(C)=O)C(=O)N[C@@H](C)C(=O)N[C@@H](CCC(N)=O)C(=O)N[C@H]1CCC(=O)NCCCCCNC(=O)CC[C@@H](C(=O)N[C@@H](Cc2ccccc2)C(N)=O)NC(=O)[C@H](CC(=O)O)NC(=O)CNC(=O)[C@H]([C@@H](C)CC)NC(=O)[C@H](CCCNC(=N)N)NC(=O)[C@H](CCCNC(=N)N)NC(=O)[C@H](CC(C)C)NC1=O` [Peptide B, Acetyl-IAQ(E1)LRRIGD(E2)F-amide] (Ac-IAQELRRIGDEF-NH2; linker 4-11 via NH(CH2)5NH), the values for the IC50 in series [1], in series [3] and in series [4] were 65 nM, 290 nM and 150 nM, respectively. The “% Helicity” value in series [2] is given as 28%. Besides, the “affinity for Bcl-2 and Bcl-xL over the unconstrained 12-mer, in words” value in series [3] is given as “outstanding increases in affinity”.
As to “Ac-IAQELRRIGDEF-NH2 [Linear 12mer, reference compound]”, the IC50 came to 870 nM in series [1], 240000 nM in series [3] and 4700 nM in series [4]. In series [2], the “% Helicity” value is recorded as 9%.
In series [5], Ac-IWIAQELRRIGDEFNA-NH2 (linker 6-13 via ‑NHCH2C(═O)(CH2)2NH2‑) showed an IC50 of 0.3 nM.
